Data taken from PubChem BioAssay (NCI).
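Dose response: 5 concentrations. Exposure: 48 h. Format: 96-well plates. Endpoint: linear interpolation; highest concentration if not reached. GI50 marks 50% less growth. TGI: concentration producing complete growth inhibition.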

How the values were obtained:
Assay in all cases: NCI tumour cell line growth inhibition, 48 h
HCC-2998 colon = test system: HCC-2998 colon
KM12 colon = test system: KM12 colon
MDA-MB-231 breast = test system: MDA-MB-231 breast
NCI-H522 lung = test system: NCI-H522 lung
OVCAR-5 ovarian = test system: OVCAR-5 ovarian
OVCAR-8 ovarian = test system: OVCAR-8 ovarian
SF-295 CNS = test system: SF-295 CNS
SK-OV-3 ovarian = test system: SK-OV-3 ovarian
SNB-75 CNS = test system: SNB-75 CNS
UACC-257 melanoma = test system: UACC-257 melanoma

SMILES	GI50 (HCC-2998 colon)	TGI (HCC-2998 colon)	GI50 (KM12 colon)	TGI (KM12 colon)	GI50 (MDA-MB-231 breast)	TGI (MDA-MB-231 breast)	GI50 (NCI-H522 lung)	TGI (NCI-H522 lung)	GI50 (OVCAR-5 ovarian)	TGI (OVCAR-5 ovarian)	GI50 (OVCAR-8 ovarian)	TGI (OVCAR-8 ovarian)	GI50 (SF-295 CNS)	TGI (SF-295 CNS)	GI50 (SK-OV-3 ovarian)	TGI (SK-OV-3 ovarian)	GI50 (SNB-75 CNS)	TGI (SNB-75 CNS)	GI50 (UACC-257 melanoma)	TGI (UACC-257 melanoma)
CN(C)CCN1C(=O)c2cccc3c(-c4ccc5ncn(C6CCCCC6)c5c4)ccc(c23)C1=O	1.82 µM	4.3 µM	2.24 µM	13.2 µM	2.18 µM	9.78 µM	1.85 µM	5.24 µM	2.99 µM	20.1 µM	1.21 µM	9.76 µM	1.54 µM	5.93 µM	2.59 µM	8.64 µM	1.78 µM	10.8 µM	3.19 µM	8.41 µM
OCCCCC#Cc1ccccc1C#Cc1cccs1	18.3 µM	33.7 µM	16.6 µM	48 µM	10.6 µM	23.3 µM	18.5 µM	35.6 µM	16.1 µM	31.7 µM	16.4 µM	31.2 µM	19 µM	34.7 µM	15.5 µM	30.6 µM	11.8 µM	24.8 µM	18.8 µM	33 µM
C=C(C)C(=O)N1c2ccc(OC)cc2CC1C(=O)OCC (stereo not given)		> 100 µM		> 100 µM		> 100 µM		> 100 µM		> 100 µM		> 100 µM		> 100 µM		> 100 µM		> 100 µM		> 100 µM
CC(C)(C)n1cc(-c2ccnc(NCCCNS(=O)(=O)c3ccc(Cl)cc3)c2)c(-c2cccc(O)c2)n1	1.76 µM	3.24 µM	2.08 µM	4.44 µM	1.87 µM	3.87 µM	1.92 µM	3.91 µM	1.57 µM	3.19 µM	2.22 µM	5.81 µM	1.79 µM	3.37 µM	2.35 µM	6.08 µM	1.37 µM	3.03 µM	1.86 µM	3.81 µM
COc1cc2c(cc1-c1c(C)noc1C)ncc1[nH]c(=O)n([C@H](C)c3ccccn3)c12	2.5 µM	17.8 µM	3.01 µM	> 100 µM	0.528 µM	> 100 µM	0.0975 µM	7.07 µM	22.4 µM	> 100 µM	3.54 µM	> 100 µM	0.649 µM	57.4 µM	0.6 µM	> 50.1 µM	< 0.0379 µM	> 43.7 µM	0.415 µM	> 100 µM
CCOC(CN(C)C(=O)OCC(Cl)(Cl)Cl)OCC		> 100 µM		> 100 µM		> 100 µM		> 100 µM		> 100 µM		> 100 µM		> 100 µM		> 100 µM		> 100 µM		> 100 µM
